Results taken from the Kinase Knowledgebase extract (Sharma et al. 2016).
≈ marks a conversion by molar mass, not a printed value. Where “and” joins values, the source holds several entries; their conditions need not be identical. Equal values may be shown once.

Biological target: EGFR (UniProt P00533)
Sequence (P00533 whole entry, looked up): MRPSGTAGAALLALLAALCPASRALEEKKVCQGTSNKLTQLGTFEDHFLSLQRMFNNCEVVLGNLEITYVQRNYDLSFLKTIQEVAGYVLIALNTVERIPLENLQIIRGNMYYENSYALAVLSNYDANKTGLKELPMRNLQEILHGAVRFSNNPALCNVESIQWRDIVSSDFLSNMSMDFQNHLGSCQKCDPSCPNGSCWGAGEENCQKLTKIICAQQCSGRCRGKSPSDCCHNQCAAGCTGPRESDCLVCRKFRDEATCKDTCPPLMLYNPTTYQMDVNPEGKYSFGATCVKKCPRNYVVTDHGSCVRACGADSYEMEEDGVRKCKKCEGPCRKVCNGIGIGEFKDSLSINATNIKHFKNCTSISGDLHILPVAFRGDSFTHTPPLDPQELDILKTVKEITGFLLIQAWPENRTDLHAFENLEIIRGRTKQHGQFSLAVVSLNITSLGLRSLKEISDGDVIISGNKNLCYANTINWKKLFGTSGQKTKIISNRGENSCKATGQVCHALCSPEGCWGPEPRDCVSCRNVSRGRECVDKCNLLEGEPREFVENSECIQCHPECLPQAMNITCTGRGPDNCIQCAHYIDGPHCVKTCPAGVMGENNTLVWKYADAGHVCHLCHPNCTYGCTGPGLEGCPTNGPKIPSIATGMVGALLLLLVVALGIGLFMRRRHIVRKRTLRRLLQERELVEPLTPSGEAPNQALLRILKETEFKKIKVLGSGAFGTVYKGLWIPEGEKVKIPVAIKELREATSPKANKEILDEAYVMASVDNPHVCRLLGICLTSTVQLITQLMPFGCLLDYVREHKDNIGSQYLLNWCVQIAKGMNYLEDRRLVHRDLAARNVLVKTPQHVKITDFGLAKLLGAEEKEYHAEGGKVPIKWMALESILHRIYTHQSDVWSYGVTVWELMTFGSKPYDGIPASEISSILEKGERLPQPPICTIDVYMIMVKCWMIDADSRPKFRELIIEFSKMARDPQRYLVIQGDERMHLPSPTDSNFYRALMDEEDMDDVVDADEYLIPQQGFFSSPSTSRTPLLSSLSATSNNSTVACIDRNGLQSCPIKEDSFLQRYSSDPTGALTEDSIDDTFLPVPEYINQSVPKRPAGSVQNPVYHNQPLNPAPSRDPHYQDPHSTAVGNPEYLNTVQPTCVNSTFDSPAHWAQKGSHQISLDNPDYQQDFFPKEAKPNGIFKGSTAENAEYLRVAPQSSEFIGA

Row | Compound | IC50
1 | CN(c1cccc(Cl)c1)c1ncnc(Nc2cccc(Cc3nnn[nH]3)c2)n1 | < 0.4 mg/L
2 | O=c1[nH]c2ccccc2n1-c1ncnc(Nc2ccccc2Cl)n1 | 0.4 to 2.4 mg/L (≈ 1.18 to 7.08 µM)
3 | CN(c1cccc(Cl)c1)c1ncnc(Nc2cccc(Br)c2)n1 | < 0.4 mg/L
4 | CN(c1cccc(Cl)c1)c1ncnc(Nc2ccc(F)c(Cl)c2)n1 | < 0.4 mg/L
5 | OCCCNc1ncnc(-c2ccccc2)n1 | > 4.5 mg/L
6 | Cc1ccc2c(c1)CCCN2c1ncnc(Nc2cccc(Cl)c2C)n1 | 2.4 to 3.5 mg/L (≈ 6.56 to 9.57 µM)
7 | O=C(O)c1cccc(Nc2ncnc(-n3c(NCc4ccccc4)nc4ccccc43)n2)c1 | < 0.4 mg/L
8 | O=c1[nH]c2ccccc2n1-c1ncnc(Nc2ncccn2)n1 | > 4.5 mg/L
9 | COc1ccc(Nc2ncnc(Nc3ccc(OCc4ccccc4)cc3)n2)cc1 | > 4.5 mg/L
10 | COc1ccc(N(C)c2ncnc(-n3c(N)nc4ccccc43)n2)cc1 | > 4.5 mg/L
11 | COc1ccc(Nc2ncnc(Nc3ccc(N(C)C)cc3)n2)cc1OC | > 4.5 mg/L
12 | O=c1[nH]c2ccccc2n1-c1ncnc(Nc2ccc(F)c(Cl)c2)n1 | > 4.5 mg/L
13 | COc1ccc2c(c1)nc(Cl)n2-c1ncnc(Nc2cc(OC)c(OC)c(OC)c2)n1.COc1ccc2nc(Cl)n(-c3ncnc(Nc4cc(OC)c(OC)c(OC)c4)n3)c2c1 | > 4.5 mg/L
14 | O=c1[nH]c2ccccc2n1-c1ncnc(Nc2ccc(C(F)(F)F)cc2)n1 | > 4.5 mg/L
15 | Cc1ccc2c(c1)CCCN2c1ncnc(NCC2CCCO2)n1 (stereo not drawn) | > 4.5 mg/L
16 | COc1cc(Nc2ncnc(N[C@H]3CCCc4ccccc43)n2)cc(OC)c1OC | 3.5 to 4.5 mg/L (≈ 8.59 to 11 µM)
17 | COC(=O)c1ccc(-c2cc(Nc3ncnc(NCCN4CCNC4=O)n3)[nH]n2)cc1 | > 4.5 mg/L
18 | COc1cc(C)c(Nc2ncnc(Nc3cc(-c4ccco4)n[nH]3)n2)cc1OC | 0.4 to 2.4 mg/L (≈ 1.02 to 6.1 µM)
19 | COc1cc(Nc2ncnc(N(CC(=O)OC(C)(C)C)c3ccc4c(c3)OCO4)n2)cc(OC)c1OC | 2.4 to 3.5 mg/L (≈ 4.69 to 6.84 µM)
20 | CCOC(=O)C(Nc1nc2ccccc2n1-c1ncnc(Nc2cc(OC)c(OC)c(OC)c2)n1)c1ccccc1 (stereo not drawn) | > 4.5 mg/L
21 | COc1cc(Nc2nc(F)nc(Nc3cccc(OC(F)(F)F)c3)n2)cc(OC)c1OC | < 0.4 mg/L
22 | Oc1cccc(Nc2ncnc(-c3ccccc3)n2)c1 | > 4.5 mg/L
23 | Nc1ncnc(Nc2cccc(Cl)c2)n1 | > 4.5 mg/L
24 | O=c1[nH]c2ccccc2n1-c1ncnc(Nc2ccccc2)n1 | > 4.5 mg/L

Row | Compound | IC50
25 | COc1ccc(N(C)c2ncnc(Nc3cc(OC)c(OC)c(OC)c3)n2)cc1 | 0.4 to 2.4 mg/L (≈ 1.01 to 6.04 µM)
26 | COc1cc(Nc2ncnc(-n3c(NCc4ccc(N(C)C)cc4)nc4ccccc43)n2)cc(OC)c1OC | 2.4 to 3.5 mg/L (≈ 4.56 to 6.65 µM)
27 | CN(c1cccc(Cl)c1)c1ncnc(Nc2ccc(OC(F)(F)F)cc2)n1 | 0.4 to 2.4 mg/L (≈ 1.01 to 6.06 µM)
28 | COc1cc(Nc2ncnc(N3CCc4ccccc43)n2)cc(OC)c1OC | > 4.5 mg/L
29 | CC(C)(C)c1cc(Nc2ncnc(Nc3ccc(CO)cc3)n2)[nH]n1 | 0.4 to 2.4 mg/L (≈ 1.18 to 7.07 µM)
30 | O=c1[nH]c2ccccc2n1-c1ncnc(Nc2cccc(Cl)c2)n1 | 2.4 to 3.5 mg/L (≈ 7.08 to 10.3 µM)
31 | COc1cc(Nc2ncnc(N3CCCc4ccccc43)n2)cc(OC)c1OC | < 0.4 mg/L
32 | COc1cc(Nc2ncnc(-n3ccnc3)n2)cc(OC)c1OC | > 4.5 mg/L
33 | COc1ccc2c(c1)nc(NCc1ccc(F)cc1)n2-c1ncnc(Nc2cc(OC)c(OC)c(OC)c2)n1.COc1ccc2nc(NCc3ccc(F)cc3)n(-c3ncnc(Nc4cc(OC)c(OC)c(OC)c4)n3)c2c1 | 2.4 to 3.5 mg/L
34 | Nc1nc2ccccc2n1-c1ncnc(Nc2ccc(Cl)cc2)n1 | 0.4 to 2.4 mg/L (≈ 1.18 to 7.11 µM)
35 | COc1cc(Nc2ncnc(-n3c(NCCCCO)nc4ccccc43)n2)cc(OC)c1OC | > 4.5 mg/L
36 | COC(=O)c1cccc(Nc2ncnc(-n3c(NCc4ccccc4)nc4ccccc43)n2)c1 | 0.4 to 2.4 mg/L (≈ 0.886 to 5.32 µM)
37 | CCOc1cccc(Nc2ncnc(Nc3ccc(OC)c(OC)c3)n2)c1 | > 4.5 mg/L
38 | COc1ccc(Nc2ncnc(NCc3c(C)cccc3Cl)n2)cc1OC | > 4.5 mg/L
39 | COc1cc(Nc2ncnc(-n3c(=O)[nH]c4ccccc43)n2)cc(OC)c1OCCN1CCOCC1 | 2.4 to 3.5 mg/L (≈ 4.86 to 7.09 µM)
40 | COc1cc(Nc2ncnc(NC3CC3c3ccccc3)n2)cc(OC)c1OC (stereo not drawn) | < 0.4 mg/L
41 | COc1ccc(Nc2ncnc(NC[C@@H]3CCCO3)n2)cc1OC | > 4.5 mg/L
42 | NC(=O)c1cccc(Nc2ncnc(-n3c(=O)[nH]c4ccccc43)n2)c1 | > 4.5 mg/L
43 | COC(=O)c1ccc(-c2cc(Nc3ncnc(NC4=NC(=O)CS4)n3)[nH]n2)cc1 | 0.4 to 2.4 mg/L (≈ 0.975 to 5.85 µM)
44 | CCOC(=O)Cc1ccc(Nc2ncnc(Nc3cc(-c4ccco4)n[nH]3)n2)cc1 | 0.4 to 2.4 mg/L (≈ 0.987 to 5.92 µM)
45 | CN(c1cccc(Cl)c1)c1ncnc(Nc2ccc3nn(C)cc3c2)n1 | < 0.4 mg/L
46 | COc1cc(Nc2ncnc(Nc3cc(OC)c(OC)c(OC)c3)n2)cc(OC)c1 | > 4.5 mg/L
47 | COc1cc(Nc2ncnc(Cl)n2)cc(OC)c1OC | > 4.5 mg/L
48 | OCCCNc1cc(-c2ncnc(Nc3cccc(OC(F)(F)C(F)F)c3)n2)ccn1 | > 4.5 mg/L

Row | Compound | IC50
49 | CN(c1ccc2c(cnn2Cc2ccccc2)c1)c1ncnc(Nc2cccc(Cc3nnn[nH]3)c2)n1 | < 0.4 mg/L
50 | COc1cc(CNc2ncnc(Nc3cc(-c4ccco4)n[nH]3)n2)cc(OC)c1OC | > 4.5 mg/L
51 | COC(=O)c1ccc(-c2cc(Nc3ncnc(Nc4cccc5ncccc45)n3)[nH]n2)cc1 | > 4.5 mg/L
52 | COc1cc(C)c(Nc2ncnc(Nc3cc(-c4ccccc4)n[nH]3)n2)cc1OC | 0.4 to 2.4 mg/L (≈ 0.991 to 5.95 µM)
53 | COc1ccc(Nc2ncnc(Nc3ccc4c(c3)C(=O)N(C)C4=O)n2)cc1OC | > 4.5 mg/L
54 | Nc1nc2ccccc2n1-c1ncnc(N2C(=O)c3ccccc3C2=O)n1 | > 4.5 mg/L
55 | CN(c1cccc(Cl)c1)c1ncnc(NCCOCCO)n1 | > 4.5 mg/L
56 | Cc1ccc2c(c1)CCCN2c1ncnc(NCCc2c[nH]c3ccccc23)n1 | > 4.5 mg/L
57 | CC(=O)Nc1ccc(Nc2ncnc(N3CCCc4cc(C)ccc43)n2)cc1 | < 0.4 mg/L
58 | CCOc1ccc(Nc2ncnc(N(C)c3cccc(Cl)c3)n2)cc1OCC | < 0.4 mg/L
59 | COc1cc(Nc2ncnc(Nc3cc(C(F)(F)F)ccc3F)n2)cc(OC)c1OC | < 0.4 mg/L
60 | COc1cc(Nc2ncnc(-n3c(NCCCc4ccccc4)nc4ccccc43)n2)cc(OC)c1OC | > 4.5 mg/L
61 | O=c1[nH]c2ccccc2n1-c1ncnc(Nc2cccc(NS(=O)(=O)c3ccc([N+](=O)[O-])cc3)c2)n1 | 0.4 to 2.4 mg/L (≈ 0.793 to 4.76 µM)
62 | Cc1cc(Br)ccc1Nc1ncnc(-n2cccc2)n1 | > 4.5 mg/L
63 | COc1cc(Nc2ncnc(N(C)c3cccc(Cl)c3)n2)cc(OC)c1 | < 0.4 mg/L
64 | COc1ccc(Nc2ncnc(N(C)C3CCN(C)CC3)n2)cc1OC | > 4.5 mg/L
65 | COc1cc(Nc2ncnc(-n3c(Nc4ccc(OC(F)(F)F)cc4)nc4ccccc43)n2)cc(OC)c1OC | 2.4 to 3.5 mg/L (≈ 4.34 to 6.32 µM)
66 | Fc1ccc(CNc2ncccc2-c2ncnc(Nc3ccc(N4CCOCC4)cc3)n2)cc1 | > 4.5 mg/L
67 | COc1cc(Nc2ncnc(N3CCN(C)CC3)n2)cc(OC)c1OC | > 4.5 mg/L
68 | COc1ccc(Nc2ncnc(Nc3ccc(F)c(F)c3)n2)cc1OC | 0.4 to 2.4 mg/L (≈ 1.11 to 6.68 µM)
69 | COc1cc(Nc2ncnc(-n3c(NC4CCCc5ccccc54)nc4ccccc43)n2)cc(OC)c1OC (stereo not drawn) | 3.5 to 4.5 mg/L and 2.4 to 3.5 mg/L
70 | COc1cc(Nc2ncnc(-n3c(NCc4nc5ccccc5[nH]4)nc4ccccc43)n2)cc(OC)c1OC | > 4.5 mg/L
71 | Cc1ccc(-c2cc(Nc3ncnc(Nc4cc(C)ccc4C)n3)[nH]n2)cc1 | < 0.4 mg/L
72 | Cc1nccc(-c2cccc(Nc3ncnc(Nc4ccc5c(cnn5Cc5ccccc5)c4)n3)c2)n1 | < 0.4 mg/L

Continued, values first:

Row | IC50 | Compound
73 | > 4.5 mg/L | COc1cc(Nc2ncnc(Nc3ccccn3)n2)cc(OC)c1OC
74 | 2.4 to 3.5 mg/L (≈ 4.92 to 7.18 µM) | COc1cc(Nc2ncnc(Nc3cc(-c4cccc(C(F)(F)F)c4)n[nH]3)n2)cc(OC)c1OC
75 | > 4.5 mg/L | COc1cc(Nc2ncnc(-n3ccc4cc(F)ccc43)n2)cc(OC)c1OC
76 | > 4.5 mg/L | COc1cc(Nc2ncnc(Nc3nccs3)n2)cc(OC)c1OC
77 | > 4.5 mg/L | COc1cc(Nc2ncnc(-n3cc(C#N)c4ccccc43)n2)cc(OC)c1OC
78 | 0.4 to 2.4 mg/L (≈ 1.03 to 6.16 µM) | COc1cc(Nc2ncnc(Nc3cc(F)ccc3F)n2)cc(OC)c1OC
79 | > 4.5 mg/L | COc1cc(Nc2ncnc(-c3cccnc3)n2)cc(OC)c1OC
80 | > 4.5 mg/L | COc1cc(Nc2ncnc(-n3c(Nc4ccccc4C(C)C)nc4ccccc43)n2)cc(OC)c1OC
81 | > 4.5 mg/L | COc1cc(Nc2ncnc(-n3c(Nc4ccccc4C(N)=O)nc4ccccc43)n2)cc(OC)c1OC
82 | > 4.5 mg/L | COc1cc(Nc2ncnc(Nc3ccc(C(N)=O)cc3)n2)cc(OC)c1OC
83 | > 4.5 mg/L | COc1cc(Nc2ncnc(-n3cc(CC(N)=O)c4ccccc43)n2)cc(OC)c1OC
84 | > 4.5 mg/L | COc1cc(Nc2ncnc(-c3cccnc3NCC(C)c3ccccc3)n2)cc(OC)c1OC (stereo not drawn)
85 | > 4.5 mg/L | COc1cc(Nc2ncnc(-c3ccc(NCc4ccccc4)nc3)n2)cc(OC)c1OC
86 | > 4.5 mg/L | COc1cc(Nc2ncnc(-c3cccnc3Nc3cccc(C(C)=O)c3)n2)cc(OC)c1OC
87 | < 0.4 mg/L | COc1cc(Nc2ncnc(Nc3cc(-c4ccco4)n[nH]3)n2)cc(OC)c1OC
88 | 2.4 to 3.5 mg/L (≈ 6.53 to 9.53 µM) | COc1cc(Nc2ncnc(Nc3ccccc3C)n2)cc(OC)c1OC

Row | IC50 | Compound
89 | > 4.5 mg/L | COc1cc(Nc2ncnc(-c3cccnc3Nc3cccc(C(F)(F)F)c3)n2)cc(OC)c1OC
90 | > 4.5 mg/L | COc1cc(Nc2ncnc(NC(=O)Nc3ccccc3)n2)cc(OC)c1OC
91 | 0.4 to 2.4 mg/L (≈ 0.982 to 5.89 µM) | COc1cc(Nc2ncnc(Nc3ccc4c(cnn4C)c3)n2)cc(OC)c1OC
92 | > 4.5 mg/L | COc1cc(Nc2ncnc(Nc3cccc4cccnc34)n2)cc(OC)c1OC
93 | > 4.5 mg/L | COc1cc(Nc2ncnc(-c3cccnc3NCCC(C)(C)C)n2)cc(OC)c1OC
94 | 0.4 to 2.4 mg/L (≈ 1.02 to 6.1 µM) | COc1cc(Nc2ncnc(Nc3ccc4c(c3)CCC4)n2)cc(OC)c1OC
95 | > 4.5 mg/L | COc1cc(Nc2ncnc(-n3c(NCc4cccc(Cl)c4)nc4ccccc43)n2)cc(OC)c1OC
96 | 0.4 to 2.4 mg/L (≈ 0.923 to 5.54 µM) | COc1cc(Nc2ncnc(Nc3cc(-c4ccc(C)cc4)n[nH]3)n2)cc(OC)c1OC
97 | > 4.5 mg/L | COc1cc(Nc2ncnc(Nc3ccc(C(C)C)cc3)n2)cc(OC)c1OC
98 | < 0.4 mg/L | COc1cc(Nc2ncnc(NCc3ccccc3)n2)cc(OC)c1OC
99 | > 4.5 mg/L | COc1cc(Nc2ncnc(-n3c(=O)sc4cc(Br)ccc43)n2)cc(OC)c1OC
100 | > 4.5 mg/L | COc1cc(Nc2ncnc(-n3c(NCCc4ccncc4)nc4ccccc43)n2)cc(OC)c1OC
101 | > 4.5 mg/L | COc1cc(Nc2nc3ccccc3n2-c2ncnc(Nc3cc(OC)c(OC)c(OC)c3)n2)cc(OC)c1
102 | 0.4 to 2.4 mg/L (≈ 1.01 to 6.07 µM) | COc1cc(Nc2ncnc(Nc3cccc(C(C)=O)c3)n2)cc(OC)c1OC
103 | < 0.4 mg/L | COc1cc(Nc2ncnc(Nc3cc(Cl)ccc3C)n2)cc(OC)c1OC
